“And” between values parts separate entries of the source, which are not always exact repeats. Equal values may be shown once. Records with an inconclusive call do not appear.
Test system: BDF1 mice, M5076 sarcoma s.c., survival/tumor T/C
Test: NCI In Vivo Anticancer Drug Screen. Data for tumor model Sarcoma M5076 (subcutaneous) in B6D2F1 (BDF1) mice
Protocol: The antitumor activity of compounds was measured in mice bearing transplantable tumors. Survival or tumor size were measured and the results are expressed as the measurement made in the treated group (T) divided by the measurement made in the vehicle treated control group (C). The tumor model used in this assay is Sarcoma M5076 (subcutaneous) in B6D2F1 (BDF1) mice

[1] = endpoint: median survival time, dose: 50.0 mg/kg/injection, schedule: Q01DX009 (ip), vehicle: saline with Tween-80, higher = longer survival
[2] = endpoint: median survival time, dose: 100.0 mg/kg/injection, schedule: Q01DX009 (ip), vehicle: saline with Tween-80, higher = longer survival
[3] = endpoint: median survival time, dose: 200.0 mg/kg/injection, schedule: Q01DX009 (ip), vehicle: saline with Tween-80, higher = longer survival
[4] = endpoint: median tumor weight (est.), dose: 50.0 mg/kg/injection, schedule: Q01DX009 (ip), vehicle: saline with Tween-80, higher = larger tumour
[5] = endpoint: median tumor weight (est.), dose: 100.0 mg/kg/injection, schedule: Q01DX009 (ip), vehicle: saline with Tween-80, higher = larger tumour
[6] = endpoint: median tumor weight (est.), dose: 200.0 mg/kg/injection, schedule: Q01DX009 (ip), vehicle: saline with Tween-80, higher = larger tumour
[7] = endpoint: median survival time, dose: 8.0 mg/kg/injection, schedule: Q01DX009 (ip), vehicle: saline with Tween-80, higher = longer survival
[8] = endpoint: median tumor weight (est.), dose: 8.0 mg/kg/injection, schedule: Q01DX009 (ip), vehicle: saline with Tween-80, higher = larger tumour
[9] = endpoint: median tumor weight (est.), dose: 16.0 mg/kg/injection, schedule: Q01DX009 (ip), vehicle: saline with Tween-80, higher = larger tumour
[10] = endpoint: median survival time, dose: 50.0 mg/kg/injection, schedule: Q01DX009 (ip), vehicle: saline, higher = longer survival

For `COC1C(O)C(C)OC(OC2C(Oc3cccc4c(O)c5c(=O)oc6ccc(C)c7c(=O)oc(c34)c5c67)OC(C)C(O)C2O)C1O` (stereo not drawn), the T/C (endpoint: mean tumor weight, dose: 25.0 mg/kg/injection, schedule: Q02DX011 (ip), vehicle: Klucel (hydroxypropylcellulose) (HPC), higher = larger tumour) was 83 % of control, the T/C (endpoint: mean tumor weight, dose: 50.0 mg/kg/injection, schedule: Q02DX011 (ip), vehicle: Klucel (hydroxypropylcellulose) (HPC), higher = larger tumour) was 96 % of control and the T/C (endpoint: mean tumor weight, dose: 100.0 mg/kg/injection, schedule: Q02DX011 (ip), vehicle: Klucel (hydroxypropylcellulose) (HPC), higher = larger tumour) was 57 % of control. For the same molecule, the T/C (endpoint: median tumor weight (est.), dose: 50.0 mg/kg/injection, schedule: Q02DX011 (ip), vehicle: Klucel (hydroxypropylcellulose) (HPC), higher = larger tumour) was 82 % of control and the T/C (endpoint: median tumor weight (est.), dose: 100.0 mg/kg/injection, schedule: Q02DX011 (ip), vehicle: Klucel (hydroxypropylcellulose) (HPC), higher = larger tumour) was 48 % of control.
In the case of `Nc1nc(=S)c2[nH]cnc2[nH]1`, the T/C (endpoint: mean tumor weight, dose: 0.5 mg/kg/injection, schedule: Q02DX011 (ip), vehicle: Klucel (hydroxypropylcellulose) (HPC), higher = larger tumour) was 58 % of control, the T/C (endpoint: mean tumor weight, dose: 1.0 mg/kg/injection, schedule: Q02DX011 (ip), vehicle: Klucel (hydroxypropylcellulose) (HPC), higher = larger tumour) was 16 % of control and the T/C (endpoint: mean tumor weight, dose: 2.0 mg/kg/injection, schedule: Q02DX011 (ip), vehicle: Klucel (hydroxypropylcellulose) (HPC), higher = larger tumour) was 3 % of control.
`CSc1ccc(NC(=O)NNP(=S)(Oc2ccc(C(C)(C)C)cc2)Oc2ccc(C(C)(C)C)cc2)cc1` was tested, and the T/C [1] was 102 % of control, the T/C [2] was 107 % of control and the T/C [3] was 87 % of control. The T/C [4] was 92 % of control, the T/C [5] was 83 % of control and the T/C [6] was 92 % of control.
In the case of `Cc1[nH]c(=O)[nH]c(=O)c1N(CCF)CCCl`, the T/C (endpoint: median survival time, dose: 4.0 mg/kg/injection, schedule: Q01DX009 (ip), vehicle: saline with Tween-80, higher = longer survival) was 104 % of control, the T/C [7] was 120 % of control and the T/C (endpoint: median tumor weight (est.), dose: 4.0 mg/kg/injection, schedule: Q01DX009 (ip), vehicle: saline with Tween-80, higher = larger tumour) was 101 % of control. The T/C [8] was 47 % of control and 57 % of control and the T/C [9] was 8 % of control and 17 % of control.
For `C1CN(P2(N3CC3)=NP(N3CC3)(N3CC3)=NP(N3CC3)(N3CC3)=N2)CCO1` (stereo not drawn), the T/C (endpoint: median survival time, dose: 6.25 mg/kg/injection, schedule: Q02DX011 (ip), vehicle: saline, higher = longer survival) was 99 % of control, the T/C (endpoint: median survival time, dose: 12.5 mg/kg/injection, schedule: Q02DX011 (ip), vehicle: saline, higher = longer survival) was 105 % of control and the T/C (endpoint: median survival time, dose: 25.0 mg/kg/injection, schedule: Q02DX011 (ip), vehicle: saline, higher = longer survival) was 122 % of control. The T/C (endpoint: median survival time, dose: 50.0 mg/kg/injection, schedule: Q02DX011 (ip), vehicle: saline, higher = longer survival) was 89 % of control.
In the case of `Nc1nc2c(c(=O)[nH]1)N(C=O)C(CNc1ccc(C(=O)N[C@@H](CCC(=O)O)C(=O)O)cc1)CN2` (stereo partly drawn), the T/C (endpoint: median survival time, dose: 50.0 mg/kg/injection, schedule: Q01DX009 (ip), vehicle: sodium bicarbonate, higher = longer survival) was 101 % of control, the T/C (endpoint: median survival time, dose: 100.0 mg/kg/injection, schedule: Q01DX009 (ip), vehicle: sodium bicarbonate, higher = longer survival) was 96 % of control and the T/C (endpoint: median survival time, dose: 200.0 mg/kg/injection, schedule: Q01DX009 (ip), vehicle: sodium bicarbonate, higher = longer survival) was 101 % of control.
For `COc1ccc(Cl)[n+]([O-])n1`, the T/C (endpoint: median survival time, dose: 50.0 mg/kg/injection, schedule: Q04DX003 (ip), vehicle: Klucel (hydroxypropylcellulose) (HPC), higher = longer survival) was 100 % of control and the T/C (endpoint: median survival time, dose: 100.0 mg/kg/injection, schedule: Q04DX003 (ip), vehicle: Klucel (hydroxypropylcellulose) (HPC), higher = longer survival) was 100 % of control.
For `Nc1ccn(C2OC3COC2C3O)c(=O)n1` (stereo not drawn), the T/C [10] was 89 % of control, the T/C (endpoint: median survival time, dose: 100.0 mg/kg/injection, schedule: Q01DX009 (ip), vehicle: saline, higher = longer survival) was 110 % of control and the T/C (endpoint: median survival time, dose: 200.0 mg/kg/injection, schedule: Q01DX009 (ip), vehicle: saline, higher = longer survival) was 102 % of control. The T/C (endpoint: median tumor weight (est.), dose: 100.0 mg/kg/injection, schedule: Q01DX009 (ip), vehicle: saline, higher = larger tumour) was 65 % of control and the T/C (endpoint: median tumor weight (est.), dose: 200.0 mg/kg/injection, schedule: Q01DX009 (ip), vehicle: saline, higher = larger tumour) was 92 % of control.
`O=C1NC2(CCCCC2)C(=O)N1CCN(CCCl)CCCl` was tested, and the T/C [9] was 10 % of control.
With `Nc1nncs1` the T/C (endpoint: mean tumor weight, dose: 18.8 mg/kg/injection, schedule: Q02DX011 (ip), vehicle: saline, higher = larger tumour) was 43 % of control, the T/C (endpoint: mean tumor weight, dose: 37.5 mg/kg/injection, schedule: Q02DX011 (ip), vehicle: saline, higher = larger tumour) was 3 % of control and the T/C (endpoint: median survival time, dose: 6.25 mg/kg/injection, schedule: Q01DX009 (ip), vehicle: saline, higher = longer survival) was 103 % of control. The T/C (endpoint: median survival time, dose: 12.5 mg/kg/injection, schedule: Q01DX009 (ip), vehicle: saline, higher = longer survival) was 111 % of control, the T/C (endpoint: median survival time, dose: 25.0 mg/kg/injection, schedule: Q01DX009 (ip), vehicle: saline, higher = longer survival) was 121 % of control and the T/C [10] was 122 % of control. For the same molecule, the T/C (endpoint: median tumor weight (est.), dose: 6.25 mg/kg/injection, schedule: Q01DX009 (ip), vehicle: saline, higher = larger tumour) was 75 % of control, the T/C (endpoint: median tumor weight (est.), dose: 12.5 mg/kg/injection, schedule: Q01DX009 (ip), vehicle: saline, higher = larger tumour) was 53 % of control and the T/C (endpoint: median tumor weight (est.), dose: 18.8 mg/kg/injection, schedule: Q02DX011 (ip), vehicle: saline, higher = larger tumour) was 47 % of control. The T/C (endpoint: median tumor weight (est.), dose: 25.0 mg/kg/injection, schedule: Q01DX009 (ip), vehicle: saline, higher = larger tumour) was 22 % of control.
With `Nc1nnc[se]1` the T/C (endpoint: median survival time, dose: 50.0 mg/kg/injection, schedule: Q04DX003 (ip), vehicle: saline with Tween-80, higher = longer survival) was 121 % of control, the T/C (endpoint: median survival time, dose: 100.0 mg/kg/injection, schedule: Q04DX003 (ip), vehicle: saline with Tween-80, higher = longer survival) was 116 % of control and the T/C (endpoint: median survival time, dose: 200.0 mg/kg/injection, schedule: Q04DX003 (ip), vehicle: saline with Tween-80, higher = longer survival) was 124 % of control.
With `O=CC(NC(=O)N(CCCl)N=O)C(O)C(O)C(O)CO` (stereo not drawn) the T/C (endpoint: mean tumor weight, dose: 0.75 mg/kg/injection, schedule: Q02DX011 (ip), vehicle: saline, higher = larger tumour) was 100 % of control, the T/C (endpoint: mean tumor weight, dose: 1.5 mg/kg/injection, schedule: Q02DX011 (ip), vehicle: saline, higher = larger tumour) was 33 % of control and the T/C (endpoint: mean tumor weight, dose: 3.0 mg/kg/injection, schedule: Q02DX011 (ip), vehicle: saline, higher = larger tumour) was 6 % of control. The T/C (endpoint: median survival time, dose: 4.32 mg/kg/injection, schedule: Q04DX003 (ip), vehicle: saline, higher = longer survival) was 182 % of control, the T/C (endpoint: median survival time, dose: 6.17 mg/kg/injection, schedule: Q04DX003 (ip), vehicle: saline, higher = longer survival) was 152 % of control and 153 % of control and the T/C (endpoint: median survival time, dose: 6.86 mg/kg/injection, schedule: Q01DX001 (ip), vehicle: saline, higher = longer survival) was 109 % of control. The T/C (endpoint: median survival time, dose: 8.82 mg/kg/injection, schedule: Q04DX003 (ip), vehicle: saline, higher = longer survival) was 179 % of control and 181 % of control, the T/C (endpoint: median survival time, dose: 9.8 mg/kg/injection, schedule: Q01DX001 (ip), vehicle: saline, higher = longer survival) was 111 % of control and 113 % of control and the T/C (endpoint: median survival time, dose: 12.6 mg/kg/injection, schedule: Q04DX003 (ip), vehicle: saline, higher = longer survival) was 186 % of control and 188 % of control. The T/C (endpoint: median survival time, dose: 18.0 mg/kg/injection, schedule: Q04DX003 (ip), vehicle: saline, higher = longer survival) was 205 % of control, the T/C (endpoint: median survival time, dose: 20.0 mg/kg/injection, schedule: Q01DX001 (ip), vehicle: saline, higher = longer survival) was 155 % of control and 156 % of control and the T/C (endpoint: median tumor weight (est.), dose: 0.75 mg/kg/injection, schedule: Q02DX011 (ip), vehicle: saline, higher = larger tumour) was 118 % of control. The T/C (endpoint: median tumor weight (est.), dose: 1.5 mg/kg/injection, schedule: Q02DX011 (ip), vehicle: saline, higher = larger tumour) was 5 % of control and the T/C (endpoint: median tumor weight (est.), dose: 3.0 mg/kg/injection, schedule: Q02DX011 (ip), vehicle: saline, higher = larger tumour) was 4 % of control.
`Cc1cc(-c2ccc(NC(=O)c3cccc([N+](=O)[O-])c3)c(C)c2)ccc1NC(=O)c1cccc([N+](=O)[O-])c1` was tested, and the T/C [1] was 107 % of control, the T/C [2] was 102 % of control and the T/C [3] was 102 % of control. The T/C [4] was 90 % of control, the T/C [5] was 83 % of control and the T/C [6] was 71 % of control.
For `CCOC(=O)C(CC(C)C)NC(=O)C(Cc1ccc(N(CCCl)CCCl)cc1)NC(C)=O` (stereo not drawn), the T/C [7] was 111 % of control, the T/C (endpoint: median survival time, dose: 16.0 mg/kg/injection, schedule: Q01DX009 (ip), vehicle: saline with Tween-80, higher = longer survival) was 117 % of control and 122 % of control and the T/C (endpoint: median survival time, dose: 64.0 mg/kg/injection, schedule: Q01DX009 (ip), vehicle: saline with Tween-80, higher = longer survival) was 170 % of control. The T/C [8] was 61 % of control, the T/C [9] was 52 % of control and the T/C (endpoint: median tumor weight (est.), dose: 32.0 mg/kg/injection, schedule: Q01DX009 (ip), vehicle: saline with Tween-80, higher = larger tumour) was 16 % of control.
